Results on 13 compounds are retold here after patent publication US11752155B2, “Treatment of autism spectrum disorders, obsessive-compulsive disorder and anxiety disorders” (Rugen Holdings (Cayman) Limited, priority 2016, dated 2023).

For one data set, the target named is human NR1/NR2B (Homo sapiens (Human), UniProt Q05586+Q13224). The experiment in a line: NR2B antagonist activity: calcium influx (Fluo-4) assay in HEK293 cells. In kind it is cell-based. Here is the method:
Activation of the NR2A or NR2B subtype of NMDA receptor with glutamate as an agonist and glycine co-agonist on these cells results in calcium influx, which can be monitored with fluorescent indicator Fluo-4.
For experiments, the cells were seeded onto poly-D-lysine-coated 96-well black plates with clear bottom (Corning) at a density of ˜50,000 cells/well. After overnight culture, the growth medium was removed from the wells and the cells were incubated at 37° C. for 60 minutes in Hanks buffer containing 4 μM fluo-4-AM (Invitrogen) and 0.1% bovine serum albumin (BSA). After dye-loading, the cells were washed three times with Hanks buffer and incubated for 10 minutes at room temperature with various concentrations of test compounds prepared in Hanks buffer with 0.1% BSA. The cell plates were placed onto an FDSS Cell fluorescence reader (Hamamatsu). After 20 seconds of reading background fluorescence, agonist glutamate at final 100 µM and co-agonist glycine at final 50 μM were added to the cells to activate the receptor, and the resulting fluorescence changes were recorded and quantified. Based on the changes in fluorescence intensity, the pharmacological effect of test compounds was analyzed and the IC50 values derived from a non-linear least squares fitting of the concentration-dependent response to a standard logistic equation using Prism (Graphpad Software, Inc.): Amplitude=Max Amplitude/(1+(IC50/[antagonist])^n).

The target of data set [1] is native rat brain NR2B receptors (Rattus norvegicus (Rat), UniProt P35439+Q00960). The experiment in a line: NR2B radioligand binding assay in rat brain using [3H] (E)-N1-(2-methoxybenzyl)-cinnamidine. To be noted: rat brain NR2B receptors; mean of replicates; read-out: Arithmetic Mean Ki. Here is the method:
This example describes an NR2B receptor binding assay in rat brain using [^3H] […] The binding assay method was adapted from a previously described cellular human NR1a/NR2B cloned receptor assay (Kiss et al. Neurochem. Internatl. 2005, 46:453-464) to rat brain tissue. This assay serves as a selective measure of NR2B receptor binding activity in native rat brain receptors. Briefly, the brains of male Wistar rats were homogenized (Polytron) before centrifugation at 40,000×g for 15 minutes at 4° C. After 2 washes, the final pellet was homogenized and stored at −80° C. The protein concentration was determined by Bradford assay. [^3H] […] Non-specific binding was assessed in the presence of excess (10 μM) (E)-N1-(2-nethoxybenzyl)-cinnamidine.
Test compounds were solubilized at 10 mM in DMSO. Then the dilutions were performed with a constant solvent concentration (1% DMSO) in the assay. After incubation for 4.5 hours at room temperature, the assays were filtered on GF/3 filters pretreated with 0.3% (v/v) polyethylenimine (PEI) with a Packard system. The experiment was performed in duplicate (n=2).

In data set [2] the test system is wild type mice (male NMRI). The experiment in a line: Marble Burying Test in wild type mice. The format is in vivo, mouse. The conditions noted are these: Mus musculus, ip, read-out: Percent Change in marbles buried relative to vehicle. Here is the method:
Animals. Male NMRI mice (20-30 g body weight) were obtained from Janvier Labs (Le Genest-Saint Isle, France) and allowed to acclimate to the animal facility for at least 5 days. Twelve mice were studied per treatment group.
Compound formulation. The test compounds were prepared in a vehicle of 0.5% DMSO and 4% HP-β-CD, and administered orally (PO) or IP. The test compounds or vehicle were administered 20 minutes before the behavioral test described below. Clobazam (8 mg/kg IP), administered 30 minutes before the test, was used as the positive reference compound.
Clobazam was dispersed in 0.2% hydroxypropylmethylcellulose (HPMC) in physiological saline. Dosing volume was 10 mL/kg.
Testing procedure. The Marble Burying Test was conducted as previously described by Broekkamp et al. (Eur. J. Pharmacol. 1986, 126:223-229). Mice exposed to small novel objects (marbles) will bury them in the sawdust floor covering. Anxiolytics decrease the number of marbles buried at non-sedating doses. Mice were individually placed in transparent plastic cages (33×21×18 cm) with 5 cm of sawdust on the floor and 25 marbles grouped in the center of the cage. The cage was covered with an inverted plastic cage. Each test cage, together with the marbles, was impregnated with mouse odor before-hand by leaving 10 mice in the cage for 15 minutes. These mice then played no further role in the experiment. The number of marbles covered by sawdust (⅔ or more) was counted at the end of the 30-minute test. The test was performed blind (compounds versus vehicle).
Statistical analyses. Data were analyzed by comparing test compound-treated groups with the vehicle control group using the Kruskal-Wallis test followed by post-hoc Mann-Whitney U tests. Data comparing the reference compound with the vehicle were analyzed using the Mann-Whitney U test. A p value<0.05 was considered significant.

Data set [3] concerns wild type mice (male C57Bl/6). The experiment in a line: Novelty Phobia Test in wild type mice. The format is in vivo, mouse. Here is the method: Animals. Male C57Bl/6 mice (18-30 g body weight; 6-8 weeks of age) were obtained from Slaccas (Shanghai, China) and allowed to acclimate to the animal facility for 7 days. Mice were group housed in plastic cages (no more than 4 animals per cage) on wood shavings with nesting material. All animals had free access to food (M01-F, Slaccas) and water. The animal facility was maintained under artificial lighting between 7:00 AM and 7:00 PM in a controlled ambient temperature of 22-24° C. and relative humidity between 50-60%.
Compound formulation. The test compounds were prepared in a vehicle of DMSO and HP-β-CD, and administered IP or PO. The test compounds or vehicle were administered at various times (10-20 minutes) before the behavioral test described below. Dosing volume was 10 mL/kg.
Testing procedure. The behavioral testing apparatus was a rectangular black Plexiglas, 2-chambered box, with no top or bottom (50 cm long, 26 cm wide and 15 cm tall) and allowed for the simultaneous testing of 2 mice. The box was placed on a laboratory bench. The chambers of the testing box were cleaned and fresh paper chip bedding was added between tests. Mice were brought to the experiment room in their home cages on the day of testing. Behavioral tests were conducted between 10:00 AM and 1:00 PM in dim light. After drug administration, a mouse was placed into a test chamber and allowed to explore for 10 minutes. After this habituation period, a novel object (e.g., a toy ball of 3 cm in diameter with spikes) was introduced to the center of the chamber for 5 minutes. For the entire 15-minute test period, video was recorded for offline analysis with Any-maze Video Tracking software (Stoelting Co., Wood Dale, Ill.). The total distance traveled during the entire 15 minutes and the number of bouts that each mouse touched the novel object during the last 5 minutes were measured.
Statistical analyses. Data are presented as means and SEMs. Data were analyzed using one-way analysis of variance (ANOVA; Prism, GraphPad Software Inc., San Diego, Calif.), followed by the post-hoc Dunnett's test to compare test compound-treated groups with the vehicle control. A p value<0.05 was considered significant.

Another data set deals with hERG channel (Homo sapiens (Human), UniProt Q12809). The experiment in a line: hERG channel inhibition, whole cell patch clamp in HEK293 cells. In kind it is cell-based.
Sequence of hERG channel (Q12809 whole entry): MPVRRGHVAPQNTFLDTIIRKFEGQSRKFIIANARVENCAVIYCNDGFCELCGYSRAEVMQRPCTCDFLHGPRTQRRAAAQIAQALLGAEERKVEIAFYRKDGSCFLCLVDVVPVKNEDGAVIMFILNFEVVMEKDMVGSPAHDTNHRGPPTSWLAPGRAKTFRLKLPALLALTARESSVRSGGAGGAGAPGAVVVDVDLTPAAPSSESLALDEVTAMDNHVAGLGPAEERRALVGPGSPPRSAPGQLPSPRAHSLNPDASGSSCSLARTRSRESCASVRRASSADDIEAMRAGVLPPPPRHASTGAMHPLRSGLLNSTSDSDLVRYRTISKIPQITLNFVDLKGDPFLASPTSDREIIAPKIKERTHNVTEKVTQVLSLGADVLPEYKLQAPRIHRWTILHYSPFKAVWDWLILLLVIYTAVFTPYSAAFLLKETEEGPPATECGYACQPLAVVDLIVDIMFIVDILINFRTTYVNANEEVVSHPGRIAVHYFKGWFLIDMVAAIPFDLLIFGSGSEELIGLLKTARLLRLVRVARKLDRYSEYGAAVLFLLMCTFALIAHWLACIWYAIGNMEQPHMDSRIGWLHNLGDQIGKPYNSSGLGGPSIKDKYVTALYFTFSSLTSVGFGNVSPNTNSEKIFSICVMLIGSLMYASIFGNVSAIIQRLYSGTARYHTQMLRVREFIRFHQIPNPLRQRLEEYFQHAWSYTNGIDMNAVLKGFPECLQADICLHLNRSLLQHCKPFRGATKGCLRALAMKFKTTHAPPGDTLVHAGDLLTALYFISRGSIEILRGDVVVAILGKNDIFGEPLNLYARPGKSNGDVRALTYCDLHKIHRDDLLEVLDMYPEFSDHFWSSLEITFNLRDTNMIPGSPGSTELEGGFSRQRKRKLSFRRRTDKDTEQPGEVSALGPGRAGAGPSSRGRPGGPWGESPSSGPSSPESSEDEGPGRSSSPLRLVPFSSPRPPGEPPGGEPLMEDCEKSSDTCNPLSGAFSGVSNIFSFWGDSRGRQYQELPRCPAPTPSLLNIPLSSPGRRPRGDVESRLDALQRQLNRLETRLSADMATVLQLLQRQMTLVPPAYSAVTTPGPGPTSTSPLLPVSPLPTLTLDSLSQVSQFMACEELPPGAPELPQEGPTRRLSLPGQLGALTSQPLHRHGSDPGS
Another data set concerns the target CYP2D6 (Homo sapiens (Human), UniProt P10635). The experiment in a line: CYP P450 enzyme inhibition in pooled human liver microsomes (dextromethorphan probe). To be noted: Table 1.4B. The format is in vitro ADME. As for the experimental part: Test compound concentration-dependent response studies were performed in triplicate.
(Liver microsomes are a subcellular fraction often used to study metabolism.)

Setting [4] is: Table 1.1A, read-out: NR2B IC50.
Where [5] appears, read: Table 1.3A, read-out: hNR2B IC50.
The mark [6] stands for this setting: Table 1.4A, read-out: NR2B IC50.

Where a name gives a salt, the structure may show the parent alone. Read-outs that look alike come from different tables or passages of the source.

Sequence of human NR1/NR2B (Q13224 27-1484, other chains not shown): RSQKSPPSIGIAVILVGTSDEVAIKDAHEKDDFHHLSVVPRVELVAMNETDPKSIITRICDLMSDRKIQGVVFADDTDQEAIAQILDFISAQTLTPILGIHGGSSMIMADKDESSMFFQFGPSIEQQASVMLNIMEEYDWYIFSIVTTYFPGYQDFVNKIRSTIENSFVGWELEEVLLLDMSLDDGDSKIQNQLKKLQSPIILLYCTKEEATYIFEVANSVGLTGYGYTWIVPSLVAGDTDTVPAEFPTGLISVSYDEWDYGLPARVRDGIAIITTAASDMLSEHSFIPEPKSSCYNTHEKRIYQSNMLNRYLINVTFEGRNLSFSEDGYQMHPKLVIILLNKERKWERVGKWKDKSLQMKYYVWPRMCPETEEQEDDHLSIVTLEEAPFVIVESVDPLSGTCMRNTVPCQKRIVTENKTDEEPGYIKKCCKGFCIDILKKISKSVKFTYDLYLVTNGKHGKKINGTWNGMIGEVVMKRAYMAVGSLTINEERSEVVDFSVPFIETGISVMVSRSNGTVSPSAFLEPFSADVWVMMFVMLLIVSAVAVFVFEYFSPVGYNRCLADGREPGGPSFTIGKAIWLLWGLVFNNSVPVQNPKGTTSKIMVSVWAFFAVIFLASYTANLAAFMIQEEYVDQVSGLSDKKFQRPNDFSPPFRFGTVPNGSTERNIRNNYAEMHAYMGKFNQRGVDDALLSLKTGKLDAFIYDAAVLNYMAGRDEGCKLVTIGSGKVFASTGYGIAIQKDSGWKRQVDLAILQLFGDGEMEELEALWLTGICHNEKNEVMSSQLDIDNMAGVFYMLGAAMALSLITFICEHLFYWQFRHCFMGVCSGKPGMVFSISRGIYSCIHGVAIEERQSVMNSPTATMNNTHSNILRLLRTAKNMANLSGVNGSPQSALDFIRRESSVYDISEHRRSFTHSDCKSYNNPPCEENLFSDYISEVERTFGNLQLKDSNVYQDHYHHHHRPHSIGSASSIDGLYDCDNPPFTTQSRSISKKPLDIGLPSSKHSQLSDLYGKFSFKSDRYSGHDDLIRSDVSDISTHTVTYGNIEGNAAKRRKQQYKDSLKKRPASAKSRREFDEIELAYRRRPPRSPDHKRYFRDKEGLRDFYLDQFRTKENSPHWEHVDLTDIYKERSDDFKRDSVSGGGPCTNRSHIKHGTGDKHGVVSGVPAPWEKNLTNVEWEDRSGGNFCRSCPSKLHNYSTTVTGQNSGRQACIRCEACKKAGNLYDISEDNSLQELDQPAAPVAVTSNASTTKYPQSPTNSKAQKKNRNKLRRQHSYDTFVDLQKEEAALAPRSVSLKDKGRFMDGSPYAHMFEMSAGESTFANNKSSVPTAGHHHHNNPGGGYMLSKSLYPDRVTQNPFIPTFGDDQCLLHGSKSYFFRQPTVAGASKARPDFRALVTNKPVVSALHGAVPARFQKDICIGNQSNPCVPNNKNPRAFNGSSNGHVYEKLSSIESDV
Sequence of native rat brain NR2B receptors (Q00960 27-1482, other chains not shown): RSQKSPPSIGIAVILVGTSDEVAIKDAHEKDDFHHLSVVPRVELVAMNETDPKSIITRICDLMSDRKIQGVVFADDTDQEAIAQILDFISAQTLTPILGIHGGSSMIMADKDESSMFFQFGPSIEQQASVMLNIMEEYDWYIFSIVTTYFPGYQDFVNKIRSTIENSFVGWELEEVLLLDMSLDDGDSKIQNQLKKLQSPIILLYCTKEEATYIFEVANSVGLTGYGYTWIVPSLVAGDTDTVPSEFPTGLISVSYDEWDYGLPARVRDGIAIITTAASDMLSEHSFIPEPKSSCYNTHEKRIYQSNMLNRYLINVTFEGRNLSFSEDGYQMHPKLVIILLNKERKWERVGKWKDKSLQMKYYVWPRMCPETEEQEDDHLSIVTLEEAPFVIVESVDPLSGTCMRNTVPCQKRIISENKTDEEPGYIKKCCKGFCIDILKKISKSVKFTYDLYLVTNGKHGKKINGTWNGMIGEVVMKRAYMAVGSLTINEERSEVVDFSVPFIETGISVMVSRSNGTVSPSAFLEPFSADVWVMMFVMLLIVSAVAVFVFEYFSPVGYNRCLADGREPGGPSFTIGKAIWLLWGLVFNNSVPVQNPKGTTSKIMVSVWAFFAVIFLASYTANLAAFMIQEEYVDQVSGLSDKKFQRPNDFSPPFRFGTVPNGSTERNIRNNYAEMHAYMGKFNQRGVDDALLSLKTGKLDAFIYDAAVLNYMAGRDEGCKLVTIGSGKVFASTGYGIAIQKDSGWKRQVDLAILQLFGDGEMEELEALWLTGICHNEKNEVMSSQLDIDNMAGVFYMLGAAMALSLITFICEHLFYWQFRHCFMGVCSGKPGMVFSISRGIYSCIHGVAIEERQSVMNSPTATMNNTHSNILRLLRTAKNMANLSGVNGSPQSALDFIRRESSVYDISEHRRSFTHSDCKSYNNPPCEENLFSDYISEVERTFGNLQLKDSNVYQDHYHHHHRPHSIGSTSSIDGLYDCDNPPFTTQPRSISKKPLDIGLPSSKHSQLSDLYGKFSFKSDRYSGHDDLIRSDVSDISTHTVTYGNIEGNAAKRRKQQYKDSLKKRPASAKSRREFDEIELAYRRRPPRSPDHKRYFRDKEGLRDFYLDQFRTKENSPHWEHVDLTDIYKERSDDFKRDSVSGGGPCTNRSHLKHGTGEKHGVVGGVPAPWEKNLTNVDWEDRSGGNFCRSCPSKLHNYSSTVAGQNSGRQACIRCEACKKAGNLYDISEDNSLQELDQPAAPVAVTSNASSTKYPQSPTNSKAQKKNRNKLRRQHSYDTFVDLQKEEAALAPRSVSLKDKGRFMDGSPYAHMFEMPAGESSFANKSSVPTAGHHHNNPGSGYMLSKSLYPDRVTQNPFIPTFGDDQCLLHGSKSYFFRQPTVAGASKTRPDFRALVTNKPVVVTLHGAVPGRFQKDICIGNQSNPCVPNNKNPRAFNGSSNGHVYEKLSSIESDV
Sequence of CYP2D6 (P10635 whole entry): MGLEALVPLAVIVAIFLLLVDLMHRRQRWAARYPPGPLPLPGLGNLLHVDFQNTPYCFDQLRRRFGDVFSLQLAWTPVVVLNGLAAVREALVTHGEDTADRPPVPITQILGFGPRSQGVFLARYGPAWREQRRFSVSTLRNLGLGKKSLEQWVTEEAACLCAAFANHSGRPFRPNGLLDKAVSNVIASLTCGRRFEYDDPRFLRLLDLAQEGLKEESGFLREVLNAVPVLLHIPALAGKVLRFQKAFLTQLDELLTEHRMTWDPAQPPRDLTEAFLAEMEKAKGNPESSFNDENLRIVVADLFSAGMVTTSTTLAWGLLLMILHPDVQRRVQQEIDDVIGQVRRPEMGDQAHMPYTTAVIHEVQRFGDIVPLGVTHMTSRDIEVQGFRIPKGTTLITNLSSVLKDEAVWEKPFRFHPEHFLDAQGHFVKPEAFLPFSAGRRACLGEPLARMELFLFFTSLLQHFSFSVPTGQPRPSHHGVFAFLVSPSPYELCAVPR

The term IC50 denotes the concentration needed to halve the response being measured. The Ki is a measure of affinity in units of concentration, obtained from inhibition or displacement. On to `FC(F)(F)c1ccc(C(F)(F)CN2CCC(Nc3ncnc4[nH]ccc34)CC2)nc1` [C-5^A′], for which the IC50 on human NR1/NR2B (setting [4]), at human NR1/NR2B (setting [5]) and at human NR1/NR2B (setting [6]) was 30 nM throughout. Further, the Ki in data set [1] came to 15.7 nM. Further, the change in vivo at 3 mg/kg in data set [2] was 2%. In addition, the change in vivo at 10 mg/kg in data set [2] was -50%; in data set [3] (Mus musculus, ip, 10 min, IP, 10 mg/kg, pre-test time 10 min, read-out: Percent Change in Novel Object Number of Nose Touches relative to vehicle control), 70.8%. Further, the change in vivo at 30 mg/kg was -98% in data set [2] (30 mg/kg) and 42.4% in data set [3] (Mus musculus, ip, 10 min, IP, pre-test time 10 min, read-out: Percent Change in Novel Object Number of Nose Touches relative to vehicle control). In addition, the “bouts of nose touching of the novel object, efficacy” value in data set [3] (IP (C-11 also PO)) is “not efficacious”. Also, the change in vivo at 60 mg/kg in data set [3] (Mus musculus, ip, 10 min, IP, 60 mg/kg, pre-test time 10 min, read-out: Percent Change in Novel Object Number of Nose Touches relative to vehicle control) is -36.9%.

With `FC(F)(F)c1ccc(C(F)(F)CN2CCC(Nc3ncnc4[nH]ccc34)CC2)cn1` [C-127^A′], the IC50 at human NR1/NR2B (setting [4]) came out at 45 nM. The IC50 on human NR1/NR2B (setting [5]) is 45 nM. Moreover, the IC50 at human NR1/NR2B (setting [6]) turned out to be 45 nM. In addition, in data set [1], the Ki came out at 31.6 nM. In data set [2], the change in vivo at 1 mg/kg came to 15%, the change in vivo at 3 mg/kg was -27% and the change in vivo at 10 mg/kg was -98%. Besides, the change in vivo at 20 mg/kg in data set [3] (Mus musculus, ip, 0.25 h, IP, 20 mg/kg, pre-test time 15 min, read-out: Percent Change in Novel Object Number of Nose Touches relative to vehicle control) came to 120%. Moreover, the change in vivo at 30 mg/kg in data set [3] (Mus musculus, ip, 0.25 h, IP, pre-test time 15 min, read-out: Percent Change in Novel Object Number of Nose Touches relative to vehicle control) came out at 160%. Further, the “pattern of the dose-response function for bouts of nose touching” value in data set [3] (mouse, in vivo) was “dose-dependent increases”.

On to `Cc1ccc(COC(=O)N2CC[C@H](CNc3ncc(C)cn3)C(F)(F)C2)cc1` [E1-22.26^B′, (R)-4-methylbenzyl 3,3-difluoro-4-(((5-methylpyrimidin-2-yl)amino)methyl)piperidine-1-carboxylate mesylate], for which, in data set [1], the Ki was 3.4 nM. In data set [2], the change in vivo at 1 mg/kg is -12%, the change in vivo at 3 mg/kg is -23% and the change in vivo at 10 mg/kg was -96%.

Turning to `Cc1ccc(COC(=O)N2CC[C@H](CNc3ccccn3)C(F)(F)C2)cc1` [E1-23.2^B′, (R)-4-methylbenzyl 3,3-difluoro-4-((pyridin-2-ylamino)methyl)piperidine-1-carboxylate], the IC50 against hERG channel (Table 1.3B) came out at 5600 nM; on CYP2D6 it was 18000 nM.

As for `O=C(OCc1ccc(F)cc1)N1CC[C@H](CNc2ccccn2)C(F)(F)C1` [E1-23.4^B′, (R)-4-fluorobenzyl 3,3-difluoro-4-((pyridin-2-ylamino)methyl)piperidine-1-carboxylate], the Ki in data set [1] came to 7.8 nM.

On to `Cc1ccc(COC(=O)N2CC[C@H](CNc3cccc(C)n3)C(F)(F)C2)cc1` [E1-23.32^B′, (+)-(R)-4-methylbenzyl 3,3-difluoro-4-(((6-methylpyridin-2-yl)amino)methyl)piperidine-1-carboxylate], for which the Ki in data set [1] is 31 nM.

Take `O=C(OCc1ccc(F)cc1)N1CC[C@H](CNc2cccnn2)C(F)(F)C1` [E1-24.4^B′, (R)-4-fluorobenzyl 3,3-difluoro-4-((pyridazin-3-ylamino)methyl)piperidine-1-carboxylate methanesulfonate]: the Ki in data set [1] was 10 nM.

Consider `O=C(OCc1ccc(C(F)F)cc1)N1CC[C@H](CNc2cccnn2)C(F)(F)C1` [E1-24.6^B′, (R)-4-(difluoromethyl)benzyl 3,3-difluoro-4-((pyridazin-3-ylamino)methyl)piperidine-1-carboxylate hydrochloride], for which the Ki in data set [1] is 4.7 nM.

Consider `Cc1ccc(COC(=O)N2CC[C@H](CNc3ccncn3)C(F)(F)C2)cc1` [E1-37.2^B′, (R)-4-methylbenzyl 3,3-difluoro-4-((pyrimidin-4-ylamino)methyl)piperidine-1-carboxylate methanesulfonate], for which the IC50 at CYP2D6 stood at 200 nM.

With `O=C(OCc1ccc(F)cc1)N1CC[C@H](CNc2ccncn2)C(F)(F)C1` [E1-37.4^B′, (R)-4-fluorobenzyl 3,3-difluoro-4-((pyrimidin-4-ylamino)methyl)piperidine-1-carboxylate mesylate], the Ki in data set [1] came to 4.7 nM.

On to `O=C(OCc1ccc(C(F)F)cc1)N1CC[C@H](CNc2ccncn2)C(F)(F)C1` [E1-37.6^B′, (R)-4-(difluoromethyl)benzyl 3,3-difluoro-4-((pyrimidin-4-ylamino)methyl)piperidine-1-carboxylate hydrochloride], for which the inhibition constant (Ki) in data set [1] worked out at 3.9 nM.

Take `O=C(OCc1ccc(F)cc1)N1CC[C@H](CNc2ccncc2F)C(F)(F)C1` [E1-38.10^B′, (R)-4-fluorobenzyl 3,3-difluoro-4-(((3-fluoropyridin-4-yl)amino)methyl)piperidine-1-carboxylate mesylate]: the Ki in data set [1] came out at 3.8 nM.

One may read the inhibition as the share of the control response that was lost under treatment. Higher therefore signals strong suppression. With `Cc1ccc(COC(=O)N2CC[C@@H](CNc3nccn4cnnc34)C(F)(F)C2)cc1` [E2-1.2^B′], the IC50 on human NR1/NR2B (Table 1.1B, read-out: NR2B IC50) was 156 nM; on human NR1/NR2B (Table 1.3B, read-out: NR2B IC50), 156 nM; at human NR1/NR2B (Table 1.4B, read-out: NR2B IC50), 156 nM. The Ki in data set [1] was 84.2 nM. For the same compound, the inhibition at 5 min, 10 µM on hERG channel (human, HEK293 cells stably expressing hERG channel, pH 7.35, 10 μM) is 22%.
